{
  "source": "patent US11542475B2",
  "about": "“3D microphysiologic system” (Northwestern University, priority 2014, dated 2023)",
  "key": {"FGF2": {"tested_on": "FGF2", "experiment": "ELISA of fallopian culture medium: FGF2", "type": "cell-based, human", "conditions": "10 nM E2, 7 days, n=6; not significantly altered", "procedure": "(§1) Tissues were micro-dissected in alpha-MEM (Gibco, Carlsbad, Calif.) with 1% penicillin-streptomycin (Invitrogen, Carlsbad, Calif.). Individual fimbriae were separated into ˜50 mm^3 pieces. A portion of the tissue was fixed in 2% paraformaldehyde for use as an uncultured control. For optimization studies, fimbriae were cultured without matrix, encapsulated in 0.5% alginate, or encapsulated in 0.5% alginate with 1 mg/ml collagen and 0.1% fibronectin, as previously described for murine cultures (King et al. J Vis Exp. 2011.; herein incorporated by reference in its entirety). For subsequent treatments, 0.5% alginate encapsulated fimbriae were randomly assigned to treatment groups, with at least five fimbriae per condition, per patient, in a 24-well plate containing alpha-MEM and 1% penicillin-streptomycin. […] Prior to fixation, fimbriae were labeled with 10 μM bromodeoxyurine (BrdU, Sigma-Aldrich) for 24 hours to denote proliferating cells. […]\n(§2) IL8, VEGF-A, and FGF2 were detected in fallopian culture medium by enzyme-linked immunosorbent assay for human IL8 (EMD Millipore, Billerica, Mass., USA), VEGF-A (RayBiotech, GA, USA), or FGF2 (Abcam) respectively using the manufacturers' protocols. […] Results were normalized to total protein content as determined by western blotting and Ponceau staining to account for difference in tissue size between treatment groups. […]"}, "VEGF-A": {"tested_on": "VEGF-A", "experiment": "ELISA of fallopian culture medium: VEGF-A", "type": "cell-based, human", "conditions": "10 nM E2, 7 days, n=7; not significantly altered", "procedure": "as §1, §2"}, "[1]": {"tested_on": "progesterone receptor (PR) expression in human fimbriae", "experiment": "3D human fimbriae culture: progesterone receptor immunohistochemistry", "type": "cell-based", "conditions": "1 nM and 10 nM E2", "procedure": "Tissues were micro-dissected in alpha-MEM (Gibco, Carlsbad, Calif.) with 1% penicillin-streptomycin (Invitrogen, Carlsbad, Calif.). Individual fimbriae were separated into ˜50 mm^3 pieces. A portion of the tissue was fixed in 2% paraformaldehyde for use as an uncultured control. For optimization studies, fimbriae were cultured without matrix, encapsulated in 0.5% alginate, or encapsulated in 0.5% alginate with 1 mg/ml collagen and 0.1% fibronectin, as previously described for murine cultures (King et al. J Vis Exp. 2011.; herein incorporated by reference in its entirety). For subsequent treatments, 0.5% alginate encapsulated fimbriae were randomly assigned to treatment groups, with at least five fimbriae per condition, per patient, in a 24-well plate containing alpha-MEM and 1% penicillin-streptomycin. […] Prior to fixation, fimbriae were labeled with 10 μM bromodeoxyurine (BrdU, Sigma-Aldrich) for 24 hours to denote proliferating cells. Fimbriae cultures were fixed (2% paraformaldehyde) followed by dehydration in ethanol and xylene, and embedment in paraffin.\nSections (5 μm) were cut and stained via hematoxylin and eosin for morphological analysis or immunohistochemistry was performed to localize proteins of interest as previously described (King et al. Endocr Relat Cancer. 2011. 18:627-42.; herein incorporated by reference in its entirety). […]"}, "[2]": {"tested_on": "primary human endocervical cells", "experiment": "Immunohistochemistry of 3D endocervical cultures (PR, ER, Ki67)", "type": "cell-based", "conditions": "day-14 (E2), day-28 (E2+P4)", "procedure": "To represent a 28-day human menstrual cycle in vitro, a stepwise hormone regimen was added to the cells. For the first 7 days, cells were incubated with 0.1 nM E2, followed by 1 nM E2 for the next 7 days (FIG. 45). Then cells were treated for 1 nM E2 and 10 nM P4 for an additional 7 days, followed by 0.1 nM E2 and 50 nM P4 for 5 days. Then media without hormones were added for the final 2 days for a total culture period of 28 days. Media was collected every 48 h and stored at −20° C. For PR antagonist studies, cells were treated with 100 nM RU486 (Sigma, MO) which was added on day-21. To visualize the cells on scaffold, cells were infected with the adenovirus containing pAD-eGFP-RLC (Cell Imaging Core, Northwestern University) (Khuon et al. Journal of cell science 123:431-440.; herein incorporated by reference in its entirety) by adding 2 μl of amplified virus to 3.5 ml of media per […] for 24 h.\nScaffolds were washed twice in PBS, covered with histogel (Fisher Scientific, MA) and fixed in 4% paraformaldehyde for 5 h. Processing and hematoxylin and eosin (H&E) staining was performed at the Northwestern University Center for Reproductive Sciences Histology Core (Chicago, Ill.). […] HRP activity was detected using 3,3′-Diaminobenzidine (DAB) in 1:50 dilution (Dako, CA) as substrate for 30-60 sec and then counterstained with hematoxylin. […]"}},
  "data": [
    {"compound": "C[C@]12CC[C@@H]3c4ccc(O)cc4CC[C@H]3[C@@H]1CC[C@@H]2O", "note": "[E2, estradiol]", "values": [
      {"measurement": "FGF2 decrease compared to vehicle control", "setting": "FGF2", "value": "9%±8%"},
      {"measurement": "VEGF-A increase compared to vehicle control", "setting": "VEGF-A", "value": "140%±75%"},
      {"measurement": "progesterone receptor (PR) expression compared to vehicle control", "setting": "[1]", "value": "induction"},
      {"measurement": "Ki67 staining compared to control", "setting": "[2]", "value": "increased staining"}
    ]}
  ]
}
